Measured values reported in patent publication US12534439B2, “Xanthohumol derivatives and methods for making and using” (Oregon State University, priority 2021, dated 2026).

Tested on: LPS-activated RAW 264.7 cells
Assay: Nitric oxide (NO) assay, Griess reagent
Assay type: cell-based
Settings: LPS 1 μg/mL, 24 hours
Protocol: Nitric Oxide (NO) Assay. NO secreted by LPS-activated RAW 264.7 cells into the culture medium was determined as nitrite by the Griess reagent. RAW 264.7 1 cells obtained from the American Type Culture Collection (Manassas, VA, USA) were cultured in DMEM supplemented with 2 mM glutamine, antibiotics (100 U/mL penicillin and 100 μg/mL streptomycin), and 10% heat-inactivated fetal bovine serum. The cells were initially grown in 75 cm^2 culture flasks at 37° C. in a humidified incubator with 5% CO2. After reaching 80% confluency, the cells were split by seeding them on 96-well plates (0.2 mL/well) at a density of 1.5×10^5 cells/mL. After a 24-hour incubation at 37° C., the cells were treated with LPS (1 μg/mL) with or without test compounds in various concentrations. Vehicle control cells were treated with dimethyl sulfoxide alone at a final concentration of 0.1%. Culture media from control and treated cells were collected after 24 hours of incubation and were frozen at −80° C. before analysis. For the determination of NO (as […]), […], aliquots of the thawed culture media were mixed with an equal volume of Griess reagent on a 96-well plate. […] The samples were incubated for 10 minutes at room temperature and then the absorbance was read at 550 nm using a SpectraMax 190 (Molecular Devices, Sunnyvale, CA) plate reader.

COc1cc(O)c(CC=C(C)C)c(O)c1-c1cc(-c2ccc(O)cc2)on1 [isoxazole derivative, 4-(5-(4-hydroxyphenyl)isoxazol-3-yl)-5-methoxy-2-(3-methylbut-2-en-1-yl)benzene-1,3-diol]
Concentration from which anti-inflammatory activity (decreased NO production) was displayed: ~10 µM
